Test results from patent publication US20190018003A1, “TUMOR DISCRIMINATION METHOD, DIAGNOSTIC AGENT FOR TUMOR, AND SENSITIZER FOR TUMOR DIAGNOSIS” (TOTO LTD., priority 2017, published 2019).

Test system: DLD-1 colon cancer cells
Test: Fluorescence enhancement in DLD-1 cells by separate administration of fluorescent dye (ALA) and particles, fluorescence microscope
Type: cell-based, human
Details: Example 6, ALA 2 mmol/l, particles 0.001 w/v %, immediately after observation light irradiation
Procedure: DLD-1 cells (DLD-1, JCRB9094) were prepared. This cell line was subcultured in an RPMI-1640 medium (RPMI-1640 medium (Life Technologies), 10 v/v % FBS (Life Technologies)). The cultured cells which reached a logarithmic growth phase 3 days or 4 days later were peeled off with Trypsin/EDTA (Thermo Fisher Scientific) and, after the reaction was terminated in an RPMI-1640 medium, centrifuged. The cell pellet obtained was suspended in an RPMI-1640 medium. The cell suspension was subjected to measurement of cell density, inoculated onto a 6-well plate at a density of 2.9×10^5 cells/2 ml/well, and cultured for 1 day.
An aqueous ALA solution (50 mmol/l) was mixed into an RPMI-1640 medium (Life Technologies) to form a 2 mmol/l ALA solution. […]
Evaluation was performed as follows. The medium of the DLD-1 cells on a 6-well plate, obtained in Example 3, was removed by an aspirator, and evaluation thereof was performed under conditions where PBS (−) and HBSS (−) in Example 4 were changed to RPMI-1640 medium and RPMI-1640 medium (no glutamine and no phenol red (Thermo Fisher Scientific), respectively, and the solution was used for detection of fluorescence.
Detection of fluorescence was performed in the same manner as in Example 5 by using an inverted fluorescence microscope and, from the acquired images, fluorescence intensities were obtained and relative fluorescence intensities were calculated.

NCC(=O)CCC(=O)O [fluorescent dye, 5-aminolevulinic acid]
Relative fluorescence intensity: 1.0
